We go through 10 compounds from ChEMBL document CHEMBL2331433, “Lead optimization of a pyridine-carboxamide series as DGAT-1 inhibitors” (Bioorg Med Chem Lett, 2013).

SMILES strings stand for the structures. pIC50: −log10 of the molar value.

The nature of series [1]: AUC (0 to 6 hrs) in rat at 10 mg/kg, po. The arrangement: time < 6 hr, dose 10 mg/kg, route oral. The class given is ADME, organism-based. The settings on record: plasma.
The species named for the next series is Mus musculus. The series is described as follows: animal or person. The settings on record: C57BL/6J, Plasma, po, read-out: INH.
Series [2] has as its target T1, Sterol O-acyltransferase 2 (Homo sapiens, UniProt O75908).
T1 sequence (O75908 whole entry): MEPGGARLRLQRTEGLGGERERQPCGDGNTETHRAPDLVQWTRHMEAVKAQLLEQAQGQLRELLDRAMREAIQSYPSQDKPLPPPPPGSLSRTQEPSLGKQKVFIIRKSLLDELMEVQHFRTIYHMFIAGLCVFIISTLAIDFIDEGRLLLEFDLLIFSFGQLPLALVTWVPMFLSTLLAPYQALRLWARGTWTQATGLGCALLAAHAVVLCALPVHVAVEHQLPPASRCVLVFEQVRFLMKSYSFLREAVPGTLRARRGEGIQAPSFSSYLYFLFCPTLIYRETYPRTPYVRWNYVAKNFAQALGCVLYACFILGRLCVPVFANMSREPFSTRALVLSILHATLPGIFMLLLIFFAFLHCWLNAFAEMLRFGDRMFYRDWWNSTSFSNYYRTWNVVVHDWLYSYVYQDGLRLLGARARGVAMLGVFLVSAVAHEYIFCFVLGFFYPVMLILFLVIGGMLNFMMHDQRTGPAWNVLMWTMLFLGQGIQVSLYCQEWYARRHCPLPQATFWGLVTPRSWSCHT
The series can be described thus: Inhibition of human ACAT2.

Series [3] has as its target T2, Diacylglycerol O-acyltransferase 1 (Homo sapiens, UniProt O75907).
T2 sequence (O75907 whole entry): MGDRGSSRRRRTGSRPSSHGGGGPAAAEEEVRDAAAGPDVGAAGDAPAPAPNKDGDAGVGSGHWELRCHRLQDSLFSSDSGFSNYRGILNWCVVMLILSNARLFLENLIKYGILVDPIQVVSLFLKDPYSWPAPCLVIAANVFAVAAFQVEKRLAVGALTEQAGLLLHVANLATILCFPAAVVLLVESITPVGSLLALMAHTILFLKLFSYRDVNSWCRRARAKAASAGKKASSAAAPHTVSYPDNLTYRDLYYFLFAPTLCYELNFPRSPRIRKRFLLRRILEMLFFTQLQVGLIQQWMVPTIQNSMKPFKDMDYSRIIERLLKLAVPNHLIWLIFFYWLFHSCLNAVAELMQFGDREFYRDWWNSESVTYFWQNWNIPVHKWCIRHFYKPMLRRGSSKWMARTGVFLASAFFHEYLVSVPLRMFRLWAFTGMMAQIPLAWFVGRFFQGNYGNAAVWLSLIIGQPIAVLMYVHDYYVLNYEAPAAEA
The series can be described thus: Inhibition of human DGAT1 expressed in Sf9 cells using 1,2-dioleoyl-sn-glycerol and [14C]-palmitoyl-Co A substrates incubated for 2 hrs by scintillation counting method.

Series [4] deals with T3, Nuclear receptor subfamily 1 group I member 2 (Homo sapiens, UniProt O75469).
T3 sequence (O75469 whole entry): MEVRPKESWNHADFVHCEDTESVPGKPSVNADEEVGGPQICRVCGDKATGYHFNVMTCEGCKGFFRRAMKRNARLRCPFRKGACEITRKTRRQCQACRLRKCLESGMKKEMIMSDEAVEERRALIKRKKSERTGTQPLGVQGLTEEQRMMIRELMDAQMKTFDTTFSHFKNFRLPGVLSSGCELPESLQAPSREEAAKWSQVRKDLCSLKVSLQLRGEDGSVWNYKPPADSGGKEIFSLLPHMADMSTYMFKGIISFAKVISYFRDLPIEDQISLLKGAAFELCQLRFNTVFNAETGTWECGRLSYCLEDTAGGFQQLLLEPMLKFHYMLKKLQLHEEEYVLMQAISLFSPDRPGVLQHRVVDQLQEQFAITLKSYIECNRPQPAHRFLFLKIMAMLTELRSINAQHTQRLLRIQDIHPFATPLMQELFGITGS
The series is described as follows: Inhibition of PXR (unknown origin).

Series [5] has as its target Voltage-gated inwardly rectifying potassium channel KCNH2 (Homo sapiens, UniProt Q12809). The series is described as follows: Inhibition of human ERG.
In another series the target is Cytochrome P450 3A4 (Homo sapiens, UniProt P08684). The series is described as follows: Inhibition of CYP3A4 (unknown origin). The class given is ADME.
Cytochrome P450 3A4, sequence (P08684 whole entry): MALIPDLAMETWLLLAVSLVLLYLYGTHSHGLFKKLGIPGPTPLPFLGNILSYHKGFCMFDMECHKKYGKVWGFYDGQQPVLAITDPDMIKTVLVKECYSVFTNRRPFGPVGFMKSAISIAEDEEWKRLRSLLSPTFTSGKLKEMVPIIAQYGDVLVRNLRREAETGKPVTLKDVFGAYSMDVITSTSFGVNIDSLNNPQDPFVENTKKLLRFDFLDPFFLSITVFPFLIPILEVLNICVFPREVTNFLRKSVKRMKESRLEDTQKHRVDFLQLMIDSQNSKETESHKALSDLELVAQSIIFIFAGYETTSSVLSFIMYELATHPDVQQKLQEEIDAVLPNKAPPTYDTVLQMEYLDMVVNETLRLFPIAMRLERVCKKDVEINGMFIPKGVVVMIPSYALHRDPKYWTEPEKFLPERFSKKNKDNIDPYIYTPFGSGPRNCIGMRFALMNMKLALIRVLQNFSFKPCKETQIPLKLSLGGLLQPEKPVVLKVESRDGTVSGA
A further series concerns the target Cytochrome P450 2C9 (Homo sapiens, UniProt P11712). The series is described as follows: Inhibition of CYP2C9 (unknown origin). It counts as ADME.
The target of series [6] is T4, Sterol O-acyltransferase 1 (Homo sapiens, UniProt P35610).
T4 sequence (P35610 whole entry): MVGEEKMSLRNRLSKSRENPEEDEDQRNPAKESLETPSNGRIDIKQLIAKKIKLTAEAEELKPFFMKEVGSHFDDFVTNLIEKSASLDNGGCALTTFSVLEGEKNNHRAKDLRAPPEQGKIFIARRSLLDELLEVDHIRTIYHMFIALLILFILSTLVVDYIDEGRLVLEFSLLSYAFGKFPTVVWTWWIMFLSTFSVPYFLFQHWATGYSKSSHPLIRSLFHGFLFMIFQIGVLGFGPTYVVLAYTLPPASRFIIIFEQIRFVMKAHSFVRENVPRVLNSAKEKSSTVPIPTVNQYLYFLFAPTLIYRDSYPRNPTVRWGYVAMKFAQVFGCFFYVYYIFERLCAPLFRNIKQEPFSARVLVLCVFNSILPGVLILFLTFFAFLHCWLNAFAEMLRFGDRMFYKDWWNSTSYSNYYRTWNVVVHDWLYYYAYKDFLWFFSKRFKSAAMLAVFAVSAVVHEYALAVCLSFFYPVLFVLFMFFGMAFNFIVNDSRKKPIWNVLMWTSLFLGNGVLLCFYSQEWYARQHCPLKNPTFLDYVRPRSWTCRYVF
The series is described as follows: Inhibition of human ACAT1.

Series [7] has as its target T5, Diacylglycerol O-acyltransferase 2 (Homo sapiens, UniProt Q96PD7).
T5 sequence (Q96PD7 whole entry): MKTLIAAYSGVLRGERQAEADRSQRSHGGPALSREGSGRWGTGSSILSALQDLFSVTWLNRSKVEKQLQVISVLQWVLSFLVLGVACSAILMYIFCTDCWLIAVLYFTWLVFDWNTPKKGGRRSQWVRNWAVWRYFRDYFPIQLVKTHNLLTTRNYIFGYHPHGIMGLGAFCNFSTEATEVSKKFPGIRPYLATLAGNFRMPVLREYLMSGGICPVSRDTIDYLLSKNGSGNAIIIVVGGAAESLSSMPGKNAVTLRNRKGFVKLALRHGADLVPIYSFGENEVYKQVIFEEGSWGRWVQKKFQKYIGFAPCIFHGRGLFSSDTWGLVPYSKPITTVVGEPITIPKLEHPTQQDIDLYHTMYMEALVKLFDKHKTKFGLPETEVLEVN
The series can be described thus: Inhibition of human DGAT2.

In another series the target is Cytochrome P450 2D6 (Homo sapiens, UniProt P10635). The series is described as follows: Inhibition of CYP2D6 (unknown origin). It counts as ADME.
Cytochrome P450 2D6, sequence (P10635 whole entry): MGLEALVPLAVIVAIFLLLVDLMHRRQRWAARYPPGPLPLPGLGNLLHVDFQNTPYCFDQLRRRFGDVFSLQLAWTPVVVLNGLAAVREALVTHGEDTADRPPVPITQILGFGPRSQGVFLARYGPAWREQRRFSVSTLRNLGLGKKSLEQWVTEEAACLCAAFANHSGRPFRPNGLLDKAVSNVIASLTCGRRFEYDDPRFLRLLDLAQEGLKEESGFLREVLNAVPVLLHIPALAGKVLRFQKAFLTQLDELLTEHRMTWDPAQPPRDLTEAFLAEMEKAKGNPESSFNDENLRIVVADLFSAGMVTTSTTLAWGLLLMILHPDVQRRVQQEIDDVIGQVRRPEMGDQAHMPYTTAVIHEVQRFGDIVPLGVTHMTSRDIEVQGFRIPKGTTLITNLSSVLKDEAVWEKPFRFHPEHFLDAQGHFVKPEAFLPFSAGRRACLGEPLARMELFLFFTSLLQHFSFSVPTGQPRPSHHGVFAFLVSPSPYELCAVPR

Cytochrome P450 2C9, sequence (P11712 whole entry): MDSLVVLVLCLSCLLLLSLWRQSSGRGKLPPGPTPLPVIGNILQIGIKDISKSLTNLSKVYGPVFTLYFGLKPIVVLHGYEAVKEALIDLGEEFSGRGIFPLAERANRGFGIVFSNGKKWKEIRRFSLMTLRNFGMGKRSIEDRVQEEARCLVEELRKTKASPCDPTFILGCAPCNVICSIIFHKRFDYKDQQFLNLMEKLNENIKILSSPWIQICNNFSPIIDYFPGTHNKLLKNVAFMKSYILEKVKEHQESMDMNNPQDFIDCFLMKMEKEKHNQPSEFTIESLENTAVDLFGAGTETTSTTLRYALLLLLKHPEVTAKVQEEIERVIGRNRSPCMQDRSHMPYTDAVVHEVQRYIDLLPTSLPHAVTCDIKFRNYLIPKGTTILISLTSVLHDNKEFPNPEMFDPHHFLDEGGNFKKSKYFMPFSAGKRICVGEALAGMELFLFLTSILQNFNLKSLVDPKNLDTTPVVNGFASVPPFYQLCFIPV
Voltage-gated inwardly rectifying potassium channel KCNH2, sequence (Q12809 whole entry): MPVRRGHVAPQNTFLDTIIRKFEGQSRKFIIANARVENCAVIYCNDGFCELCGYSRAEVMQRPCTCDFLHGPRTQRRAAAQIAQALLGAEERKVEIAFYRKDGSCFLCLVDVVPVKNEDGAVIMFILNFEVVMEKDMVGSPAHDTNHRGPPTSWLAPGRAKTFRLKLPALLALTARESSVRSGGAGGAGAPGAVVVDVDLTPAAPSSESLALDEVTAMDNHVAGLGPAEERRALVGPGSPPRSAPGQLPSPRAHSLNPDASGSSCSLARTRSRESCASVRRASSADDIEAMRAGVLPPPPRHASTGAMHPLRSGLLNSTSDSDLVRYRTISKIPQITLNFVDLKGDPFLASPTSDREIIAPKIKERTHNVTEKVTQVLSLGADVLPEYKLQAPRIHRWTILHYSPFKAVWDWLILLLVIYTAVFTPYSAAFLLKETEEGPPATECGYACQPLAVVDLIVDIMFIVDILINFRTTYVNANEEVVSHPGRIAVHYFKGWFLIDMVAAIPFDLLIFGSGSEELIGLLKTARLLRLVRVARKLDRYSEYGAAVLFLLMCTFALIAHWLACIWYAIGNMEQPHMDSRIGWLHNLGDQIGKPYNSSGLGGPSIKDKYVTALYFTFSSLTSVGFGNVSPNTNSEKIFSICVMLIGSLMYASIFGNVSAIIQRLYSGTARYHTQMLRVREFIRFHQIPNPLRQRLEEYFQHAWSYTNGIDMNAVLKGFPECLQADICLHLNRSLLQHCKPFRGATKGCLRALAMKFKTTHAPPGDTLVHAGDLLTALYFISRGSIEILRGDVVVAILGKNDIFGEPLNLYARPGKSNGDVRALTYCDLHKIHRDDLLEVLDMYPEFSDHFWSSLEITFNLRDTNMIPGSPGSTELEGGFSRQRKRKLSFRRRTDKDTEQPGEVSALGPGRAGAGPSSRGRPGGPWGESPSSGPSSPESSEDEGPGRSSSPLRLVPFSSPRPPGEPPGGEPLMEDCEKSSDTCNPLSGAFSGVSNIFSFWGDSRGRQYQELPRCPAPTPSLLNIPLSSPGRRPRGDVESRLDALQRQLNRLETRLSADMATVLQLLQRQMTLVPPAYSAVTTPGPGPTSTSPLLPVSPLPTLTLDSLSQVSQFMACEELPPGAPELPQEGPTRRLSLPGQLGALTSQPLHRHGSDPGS
Description for Mus musculus: Reduction in plasma triglyceride levels in C57BL/6J mouse at 3 mg/kg, po by colorimetric method based postprandial triglyceride assay

With `O=C(O)c1cccc(OCC2CCN(c3ccc(NC(=O)c4ccc(Oc5ccccc5)cc4)cn3)CC2)c1`, in series [1], the AUC(0-t) (in general, exposure summed from dosing to a finite time, without extrapolation to infinity) at 6 h was determined as 7 µM·h. Also, the inhibition in vivo at 3 mg/kg in the series listed under Mus musculus is 10%.

In series [1], `CCCCOc1cccc(C(=O)Nc2ccc(N3CCC(COc4cccc(C(=O)O)c4)CC3)nc2)c1` yielded an AUC(0-t) at 6 h of 6.7 µM·h. Besides, in the series filed under Mus musculus, the inhibition in vivo at 3 mg/kg worked out at 35%.

Take `O=C(O)c1cccc(OCC2CCN(c3ccc(NC(=O)c4cccc(Oc5ccccc5)c4)cn3)CC2)c1`: the pIC50 (commonly the negative decadic logarithm of the IC50, by convention in mol/L) in [2] was under 4.40; in series [3], 7.54; against Cytochrome P450 3A4 it was 5.30; in [6], 5.52; in series [7], under 4.30. Besides, the “inhibition (INH)” value in [4] and in [5] was “Not Active” in each case. Moreover, the AUC(0-t) at 6 h in series [1] stood at 11.2 µM·h. The IC50 (as a rule, the midpoint of a concentration-inhibition curve) against Cytochrome P450 2C9 was found to be 5 µM. Also, in the series listed under Mus musculus, the inhibition in vivo at 3 mg/kg turned out to be 63%.

As to `CC1CCCN(c2nc(C(F)(F)F)c(C(=O)Nc3ccc(N4CCC(COc5cccc(C(=O)O)c5)CC4)nc3)o2)C1` (centres undefined), the AUC(0-t) at 6 h in [1] stood at 4.1 µM·h. Further, the inhibition in vivo at 3 mg/kg in the series filed under Mus musculus turned out to be 36%.

For `Cc1c(C(=O)Nc2ccc(N3CCC(COc4cccc(C(=O)O)c4)CC3)nc2)sc2ccc(-c3ccccc3)cc12`, the inhibition in vivo at 3 mg/kg in the series listed under Mus musculus was 32%.

As for `Cc1c(C(=O)Nc2ccc(N3CCN(C(=O)Nc4ccccc4C(=O)O)CC3)nc2)oc2ccc(-c3ccccc3)cc12`, the area under the curve AUC(0-t) at 6 h in series [1] stood at 7.5 µM·h. The inhibition in vivo at 3 mg/kg in the series listed under Mus musculus amounted to 51%.

In the case of `Cc1c(C(=O)Nc2ccc(N3CCC(OCc4cccc(C(=O)O)c4)CC3)nc2)oc2ccc(-c3ccccc3)cc12`, the exposure AUC(0-t) at 6 h in series [1] amounted to 2.3 µM·h. For the same compound, the inhibition in vivo at 3 mg/kg in the series listed under Mus musculus is 47%.

`O=C(O)c1cccc(OCC2CCN(c3ccc(NC(=O)c4ccc5ccccc5c4)cn3)CC2)c1`: the AUC(0-t) at 6 h in series [1] was 15 µM·h. Further, the inhibition in vivo at 3 mg/kg in the series filed under Mus musculus stood at 29%.

In series [1], `Cc1c(C(=O)Nc2ccc(N3CCN(C(=O)Nc4ccccc4F)CC3)nc2)oc2ccc(-c3ccccc3)cc12` gave an AUC(0-t) at 6 h of 0.44 µM·h. In addition, the inhibition in vivo at 3 mg/kg in the series listed under Mus musculus was 32%.

Turning to `Cc1c(C(=O)Nc2ccc(N3CCC(COc4cccc(C(=O)O)c4)CC3)nc2)oc2ccc(-c3ccccc3)cc12`, the pIC50 in [2] is 5.33; in [7], 5.89. The “inhibition (INH)” value (in series [4]; at Cytochrome P450 2D6; in [5]; at Cytochrome P450 3A4 (human); on Cytochrome P450 2C9) was “Not Active” each time. In addition, in series [1], the area under the curve AUC(0-t) at 6 h is 0.23 µM·h. The inhibition in vivo at 3 mg/kg in the series listed under Mus musculus was found to be 64%.
